Test results from ChEMBL document CHEMBL5131473, “One-pot synthesis of oxoaporphines as potent antitumor agents and investigation of their mechanisms of actions” (Eur J Med Chem, 2022).
Active and inactive are the calls of the source. The calls are words filed in the database; no cut-off is given here.

Experiments:
[1] = system: T-24; experiment: Induction of apoptosis in human T24 cells assessed as necrotic cells at 1 uM incubated for 24 hrs by Annexin-V/PI staining based flow cytometry analysis (reference value: 1.92 %); format: functional
[2] = system: T-24; experiment: Induction of mitochondrial membrane potential dysfunction in human T24 cells assessed as nuclear condensation at 0.5 to 1 uM by mito-tracker green dye based fluorescence microscopy; format: functional, cell-based; settings: dose 0.5-1 µM
[3] = system: T-24; experiment: Induction of mitochondrial ROS generation in human T24 cells at 0.5 uM measured after 24 hrs by DCFH-DA staining based confocal microscopy method; format: functional, cell-based
[4] = system: T-24; experiment: Induction of apoptosis in human T24 cells assessed as increase in caspase 9 activity at 0.5 uM (Rvb= 7.2%); format: functional
[5] = system: T-24; experiment: Induction of mitochondrial membrane potential dysfunction in human T24 cells assessed as disappearance of cristae at 0.5 uM incubated for 24 hrs by TEM analysis; format: functional, cell-based
[6] = system: T-24; experiment: Induction of cell cycle arrest in human T24 cells assessed as increase in Cyclin B expression at 0.5 to 1 uM incubated for 24 hrs by chemiluminescence based Western blotting analysis; format: functional; settings: dose 0.5-1 µM, DDE = dose-dependent effect
[7] = system: T-24; experiment: Inhibition of cell migration in human T24 cells assessed as recovery of wound area at 0.25 uM measured after 24 hrs by wound healing assay based fluorescence microscopy; format: functional; parameters: scale not given: the % may be the effect or the level left
[8] = system: T-24; experiment: Induction of apoptosis in human T24 cells assessed as viable cells at 0.5 uM incubated for 24 hrs by Annexin-V/PI staining based flow cytometry analysis (reference value: 94.3 %); format: functional; settings: read-out: Activity
[9] = system: T-24; experiment: Induction of apoptosis in human T24 cells assessed as condensed chromatin at 0.5 uM by Hoechst33258 staining based fluorescence microscopy; format: functional, cell-based
[10] = system: T-24; experiment: Induction of apoptosis in human T24 cells assessed as condensed chromatin at 10 uM by Hoechst33258 staining based fluorescence microscopy; format: functional, cell-based
[11] = system: T-24; experiment: Induction of mitochondrial mediated apoptosis in human T24 cells assessed as upregulation of cytochrome c expression at 10 to 15 uM incubated for 24 hrs by Western blotting analysis; format: functional, cell-based; settings: dose 10-15 µM
[12] = system: T-24; experiment: Induction of cell cycle arrest in human T24 cells assessed as increase in CDK1 expression at 10 to 15 uM incubated for 24 hrs by chemiluminescence based Western blotting analysis; format: functional; settings: dose 10-15 µM, DDE = dose-dependent effect
[13] = system: T-24; experiment: Induction of apoptosis in human T24 cells assessed as late apoptotic cells at 20 uM incubated for 24 hrs by Annexin-V/PI staining based flow cytometry analysis (reference value: 0.543 %); format: functional
[14] = system: T-24; experiment: Induction of mitochondrial ROS generation in human T24 cells at 10 uM measured after 24 hrs by DCFH-DA staining based confocal microscopy method; format: functional, cell-based
[15] = system: T-24; experiment: Induction of mitochondrial membrane potential dysfunction in human T24 cells assessed as increase in fragmentation at 10 uM incubated for 24 hrs by TEM analysis; format: functional, cell-based
[16] = system: T-24; experiment: Induction of mitochondrial membrane potential dysfunction in human T24 cells assessed as depolarised cells at 10 uM incubated for 24 hrs by JC-1 staining based flow cytometry (reference value: 6.20%); format: functional
[17] = system: T-24; experiment: Induction of DNA damage in human T24 cells assessed as increase in gamma H2AX phosphorylation at 10 uM incubated for 24 hrs by Hoechst33258 staining based immunofluorescence assay; format: functional, cell-based
[18] = system: T-24; experiment: Cytotoxicity against human T24 cells assessed as decrease in cell viability at 10 uM by MTT assay; format: functional, cell-based; settings: TDE = time-dependent effect
[19] = system: T-24; experiment: Induction of mitochondrial ROS generation in human T24 cells at 10 uM measured after 24 hrs by Mitotracker Red dye based confocal microscopy method; format: functional, cell-based
[20] = system: T-24; experiment: Induction of apoptosis in human T24 cells assessed as late apoptotic cells at 15 uM incubated for 24 hrs by Annexin-V/PI staining based flow cytometry analysis (reference value: 0.543 %); format: functional
[21] = system: T-24; experiment: Induction of apoptosis in human T24 cells assessed as increase in caspase 3 activity at 10 uM (Rvb= 3.1%); format: functional
[22] = system: T-24; experiment: Induction of apoptosis in human T24 cells assessed as viable cells at 15 uM incubated for 24 hrs by Annexin-V/PI staining based flow cytometry analysis (reference value: 94.3 %); format: functional; settings: read-out: Activity
[23] = system: T-24; experiment: Induction of mitochondrial membrane potential dysfunction in human T24 cells assessed as disappearance of cristae at 10 uM incubated for 24 hrs by TEM analysis; format: functional, cell-based
[24] = system: T-24; experiment: Induction of DNA damage in human T24 cells assessed as increase in […] p53 expression at 10 to 15 uM incubated for 24 hrs by Western blot analysis; format: functional, cell-based; settings: dose 10-15 µM
[25] = system: T-24; experiment: Inhibition of colony formation in human T24 cells at 0.16 uM incubated for 24 hrs and measured for 10 days; format: functional, cell-based
[26] = system: T-24; experiment: Cytotoxicity against human T24 cells assessed as decrease in cell viability at 2 uM by MTT assay; format: toxicity, cell-based; settings: t-24, 72 h, TDE = time-dependent effect
[27] = system: T-24; experiment: Induction of DNA damage in human T24 cells assessed as DNA strand breakage by measuring comet formation at 2 uM incubated for 24 hrs by comet assay; format: functional, cell-based
[28] = system: T-24; experiment: Induction of apoptosis in human T24 cells assessed as late apoptotic cells at 4 uM incubated for 24 hrs by Annexin-V/PI staining based flow cytometry analysis (reference value: 0.543 %); format: functional
[29] = system: T-24; experiment: Induction of mitochondrial membrane potential dysfunction in human T24 cells assessed as decrease in ATP production at 4 uM; format: functional; parameters: scale not given: the % may be the effect or the level left
[30] = system: T-24; experiment: Induction of mitochondrial membrane potential dysfunction in human T24 cells assessed as depolarised cells at 4 uM incubated for 24 hrs by JC-1 staining based flow cytometry (reference value: 6.20%); format: functional
[31] = system: T-24; experiment: Induction of cell cycle arrest in human T24 cells assessed as upregulation of Cyclin E expression at 2 to 4 uM incubated for 24 hrs by chemiluminescence based Western blotting analysis; format: functional; settings: dose 2-4 µM
[32] = system: T-24; experiment: Induction of apoptosis in human T24 cells assessed as increase in caspase 3 activity at 4 uM (Rvb= 3.1%); format: functional
[33] = system: T-24; experiment: Induction of mitochondrial mediated apoptosis in human T24 cells assessed as decrease in Bcl-2 protein expression at 2 to 4 uM incubated for 24 hrs by Western blotting analysis; format: functional, cell-based; settings: dose 2-4 µM
[34] = system: T-24; experiment: Induction of apoptosis in human T24 cells assessed as increase in caspase 9 activity at 2uM (Rvb= 7.2%); format: functional
[35] = system: T-24; experiment: Induction of cell cycle arrest in human T24 cells assessed as accumulation of cells at G2/M phase at 2 uM incubated for 24 hrs by propidium iodide/RNase A staining based flow cytometry analysis (reference value: 5.82 %); format: functional
[36] = Toxicity in human WI-38 cells assessed as wound closure at 1 uM measured after 24 hrs by fluorescence microscopy based wound healing assay; format: cell-based; settings: wi-38, 24 h
[37] = system: T-24; experiment: Induction of apoptosis in human T24 cells assessed as condensed chromatin at 2 uM by Hoechst33258 staining based fluorescence microscopy; format: functional, cell-based
[38] = system: T-24; experiment: Inhibition of cell migration in human T24 cells assessed as recovery of wound area at 1 uM measured after 24 hrs by wound healing assay based fluorescence microscopy; format: functional; parameters: scale not given: the % may be the effect or the level left

For `O=C1c2ccccc2-c2ccc([N+](=O)[O-])c3ccnc1c23`, the Activity [1] was 1.57%, the Activity [2] was “Active” and the Activity [3] was “Active”. For the same molecule, the Activity [4] was 26.9%, the Activity [5] was “Active” and the Activity [6] was “Dde”. The Activity [7] was 15.9%, the viability at 0.5 µM [8] was 58.1% and the Activity [9] was “Active”.

For `O=C1c2ccccc2-c2cccc3ccnc1c23`, the Activity [10] was “Active”, the Activity [11] was “Active” and the Activity [12] was “Dde”. The Activity [13] was 4.89%, the Activity [14] was “Active” and the Activity [15] was “Active”. For the same molecule, the Activity [16] was 11.7%, the Activity [17] was “Active” and the Activity [18] was “Tde”. The Activity [19] was “Active”, the Activity [20] was 6.56% and the Activity [21] was 19.9%. The viability at 15 µM [22] was 58%, the Activity [23] was “Active” and the Activity [24] was “Active”.

For `O=C1c2cc([N+](=O)[O-])ccc2-c2ccc([N+](=O)[O-])c3ccnc1c23`, the inhibition [25] was “Active”, the Activity [26] was “Tde” and the Activity [27] was “Active”. It also gave an Activity [28] of 5.49%, an Activity [29] of 43.1% and an Activity [30] of 31.3%. The Activity [31] was “Active”, the Activity [32] was 28% and the Activity [33] was “Active”. For the same molecule, the Activity [34] was 27.5%, the Activity [35] was 33.02% and the Activity [36] was “Non-Toxic”. For the same molecule, the Activity [37] was “Active” and the Activity [38] was 20.1%.
